In article PMC5700161, “Structure of human immunoproteasome with a reversible and noncompetitive inhibitor that selectively inhibits activated lymphocytes” (Nature Communications, 2017):
“Also recorded” adds a separate entry of the source.

Assays:
MM.1S cells = assay: Cytotoxicity, CellTiter-glo, MM.1S; format: cell-based; conditions: 72 h
Description: Fig. 4 Intracellular proteasome inhibition by PKS21221 and its cytotoxicity against transformed cell lines. a Karpas 1106P lymphoma cells (white and black symbols) or HepG2 cells (blue symbols) were treated with PKS21221 for 2 h at the concentrations indicated prior to incubation with substrate (Ac-ANW)2R110 for β5i (Karpas cells) or suc-LLVY-luciferin for β5 (Karpas cells and HepG2 cells). […] Cell viability was determined by CellTiter-glo. Data are means ± SEM of three to four independent experiments
We incubated MM.1S, RPMI 8226, Karpas and HepG2 cells with PKS21221 at different concentrations, and determined cell viability after 72 h (Fig. 4b).
We used Karpas 1106P B lymphoma cell line (Cat. No. 06072607, Aldrich)[15],[16],[52], HepG2 (HB-8065, ATCC), MM.1S (Cat. No. CRL-2974, ATCC). Cells were cultured at 37 °C in a humidified air/5% CO2 atmosphere in medium supplemented with 10% fetal bovine serum, except for the medium for Karpas 1106P cells which contained 20% fetal bovine serum, and 100 units per ml penicillin, 100 μg per ml streptomycin in RPMI 1640 medium. Karpas 1106P was used at 80,000 cells per well, MM.1S at 100,000 cells per well, and HepG2 at 12,000 cells per well. […] Viable cells were counted using Cell-titer Glo assay kit. EC50s were calculated using PRISM (Graphpad).

PBMCs = assay: Viability of total PBMCs in ASC differentiation culture (7-AAD); format: cell-based
Description: (§1) The immunoproteasome plays important roles in T cell differentiation and proliferation and dendritic cell activation and maturation[14],[20],[24]. However, its role in B cell differentiation is not well understood. […] Differentiated ASCs were then exposed to PKS21221 at indicated concentrations and cell survival was determined with Annexin V and 7-aminoactinomycin D (7-AAD) at three-time points (12-h, 24-h, and 48-h after treatment). […] In addition, the cytotoxicity of PKS21221 to different cell populations in PBMC was examined and compared to the cytotoxicity of bortezomib. PBMCs were incubated with PKS21221 or bortezomib, and the viability was assessed in T cells (CD3^+), B cells (CD19^+), monocytes (CD14^+) and dendritic cells (CD3^−CD19^−CD14^−CD16^−CD11c^+HLA-DR^+), respectively (Supplementary Fig. 13b–e).
(§2) PBMCs were cultured with or without IL-2/R848 for 5 days, followed by 12-h incubation with PKS21221 at different concentrations. a Representative flow cytometry plots of cells treated with IL-2 and R848 in the presence and absence of PKS21221. […] Annexin V^+7-AAD^− cells were referred as “Early apoptosis” population, and Annexin V^+7-AAD^+ cells were referred as “Dead” population. d Percentage of early apoptotic ASCs (left) and dead ASCs (right), after 12-h incubation with PKS21221. […]

CD19+ non-ASCs = assay: Apoptosis and viability of CD19+ non-ASCs in ASC differentiation culture; format: cell-based
Description: as §1, §2

proliferating T cells = assay: Apoptosis and viability of proliferating vs non-proliferating T cells; format: cell-based, human; conditions: 4 days anti-CD3/anti-CD28, then 24 h; PKS21221 1 µM, BTZ 10 nM
Description: As we observed selective cytotoxicity of PKS21221 in activated B cells and ASCs compared to non-activated B cells, we asked whether this is the case in proliferating T cells. We activated human T cells to proliferate with anti-CD3 and anti-CD28 in the presence or absence of PKS21221 or bortezomib. […] To examine whether these inhibitors are cytotoxic preferentially to proliferating cells, we triggered T-cell proliferation with anti-CD3/anti-CD28 for 4 days (in the absence of inhibitors), treated the cells with PKS21221 for the next 24 h and determined cell survival with Annexin V and 7-AAD (Fig. 6c, d).
Fig. 6 Effect of PKS21221 and bortezomib (BTZ) on T-cell proliferation. T cells were isolated from human PBMC and stimulated with anti-CD3 (1 µg per ml) and anti-CD28 (1 µg per ml) for 4 days. […] Apoptosis c and viability d were assessed in proliferating and non-proliferating population of T cells. […]
T cells were isolated from human PBMCs using Human T-cell Isolation kit (StemCell Technologies, Cat#17951). […] Cells were counted and loaded with 5 μM CellTrace Violet (Thermo Fisher) in phosphate buffered saline (PBS) for 10 min at 37 °C, followed by wash in 10% fetal calf serum (FCS)-supplemented RPMI 1640 media. […] The viability and apoptosis were assessed using Annexin V Apoptosis Detection Kit (BD Biosciences). […]

Cc1ccc(S(=O)(=O)N[C@@H](CC(=O)NC(C)(C)C)C(=O)NCCNC(=O)c2cc(-c3ccccc3F)ccc2F)cc1 [PKS21221]
EC50 (MM.1S cells): 0.078 ± 0.03 µM | overall viability of PBMCs (PBMCs): not affected; also recorded: did not affect overall viability | apoptosis of CD19+ non-ASCs (CD19+ non-ASCs): slightly enhanced | viability of CD19+ non-ASCs (CD19+ non-ASCs): did not affect viability | apoptosis and cell death, proliferating vs non-proliferating T cells (proliferating T cells): induced apoptosis and cell death to a greater extent in proliferating T cells than in non-proliferating T cells
